Measured values taken from ChEMBL document CHEMBL4229569, “Structure-Based Design of 1-Heteroaryl-1,3-propanediamine Derivatives as a Novel Series of CC-Chemokine Receptor 5 Antagonists” (J Med Chem, 2018).

Assays:
[1] = Tmax in Sprague-Dawley rat at 20 mg/kg, po by LC-MS/MS analysis; assay type: ADME, organism-based; details: in vivo
in vitro [2] = details: human, PBMC
Description: Therapeutic index, ratio of CC50 for human PBMC to IC50 for CCR5-dependent HIV1 SF162 infected in human PBMC cells

[3] = Tmax in Sprague-Dawley rat at 10 mg/kg, iv by LC-MS/MS analysis; assay type: ADME, organism-based; details: in vivo
[4] = MRT in Sprague-Dawley rat at 10 mg/kg, iv by LC-MS/MS analysis; assay type: ADME, organism-based; details: in vivo
in vitro [5] = details: human, PM1 cells
Description: Therapeutic index, ratio of CC50 for human PM1 cells to IC50 for CCR5-dependent HIV1 Ba-L infected in human PM1 cells

[6] = Clearance in Sprague-Dawley rat at 10 mg/kg, iv by LC-MS/MS analysis; assay type: ADME, organism-based; details: in vivo
[7] = AUC (0 to infinity) in Sprague-Dawley rat at 20 mg/kg, po by LC-MS/MS analysis; assay type: ADME, organism-based; set-up: dose 20 mg/kg, route oral, time infinity; details: in vivo
Cytochrome P450 2C19 = Cytochrome P450 2C19 (Homo sapiens, UniProt P33261); test: Inhibition of CYP2C19 (unknown origin); assay type: ADME
in vitro [8] = details: human, PBMC; remark: listed apart in the source
Description: Therapeutic index, ratio of CC50 for human PBMC to IC50 for CCR5-dependent HIV1 Ba-L infected in human PBMC

in vitro [9] = details: human, PBMC; remark: listed apart in the source
Description: Therapeutic index, ratio of CC50 for human PBMC to IC50 for CCR5-dependent HIV1 KM018 infected in human PBMC

[10] = system: Human immunodeficiency virus 1; test: microbe, parasite or virus in culture; details: Human immunodeficiency virus 1, SF162, PBMC, 168 h
Description: Antiviral activity against CCR5-dependent HIV1 SF162 infected in human PBMC assessed as reduction in virus infection measured after 7 days by luciferase reporter gene assay

[11] = AUC (0 to infinity) in Sprague-Dawley rat at 10 mg/kg, iv by LC-MS/MS analysis; assay type: ADME, organism-based; set-up: dose 10 mg/kg, time infinity, route intravenous; details: in vivo
[12] = system: Human immunodeficiency virus 1; test: microbe, parasite or virus in culture; details: Human immunodeficiency virus 1, Ba-L, PM1, 120 h
Description: Antiviral activity against CCR5-dependent HIV1 Ba-L infected in human PM1 cells assessed as reduction in virus infection measured after 5 days by luciferase reporter gene assay

[13] = Oral bioavailability in Sprague-Dawley rat at 20 mg/kg by LC-MS/MS analysis; assay type: ADME, organism-based; details: in vivo
[14] = Half life in Sprague-Dawley rat at 20 mg/kg, po by LC-MS/MS analysis; assay type: ADME, organism-based; details: in vivo
Cytochrome P450 1A2 = target: T1, Cytochrome P450 1A2 (Homo sapiens, UniProt P05177); test: Inhibition of CYP1A2 (unknown origin); assay type: ADME
T1 sequence (P05177 whole entry): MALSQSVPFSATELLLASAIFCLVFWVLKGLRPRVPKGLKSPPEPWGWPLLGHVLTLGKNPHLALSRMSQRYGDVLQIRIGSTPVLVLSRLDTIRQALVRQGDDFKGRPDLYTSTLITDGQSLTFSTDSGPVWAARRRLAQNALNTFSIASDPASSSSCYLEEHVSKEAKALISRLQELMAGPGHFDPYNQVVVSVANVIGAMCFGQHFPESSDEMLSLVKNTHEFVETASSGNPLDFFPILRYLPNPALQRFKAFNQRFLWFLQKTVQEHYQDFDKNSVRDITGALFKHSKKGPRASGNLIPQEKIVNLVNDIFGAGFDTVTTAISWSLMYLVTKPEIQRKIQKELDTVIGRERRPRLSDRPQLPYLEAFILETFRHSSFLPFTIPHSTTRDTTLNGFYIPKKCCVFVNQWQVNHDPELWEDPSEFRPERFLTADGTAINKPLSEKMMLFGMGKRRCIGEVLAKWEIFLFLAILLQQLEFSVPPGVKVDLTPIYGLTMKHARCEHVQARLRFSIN

[15] = MRT in Sprague-Dawley rat at 20 mg/kg, po by LC-MS/MS analysis; assay type: ADME, organism-based; details: in vivo
[16] = Cmax in Sprague-Dawley rat at 20 mg/kg, po by LC-MS/MS analysis; assay type: ADME, organism-based; set-up: dose 20 mg/kg, route oral; details: in vivo
[17] = system: Human immunodeficiency virus 1; test: microbe, parasite or virus in culture; details: Human immunodeficiency virus 1, Ba-L, PBMC, 168 h
Description: Antiviral activity against CCR5-dependent HIV1 Ba-L infected in human PBMC assessed as reduction in virus infection measured 7 days by luciferase reporter gene assay

Cytochrome P450 2C9 = Cytochrome P450 2C9 (Homo sapiens, UniProt P11712); test: Inhibition of CYP2C9 (unknown origin); assay type: ADME
[18] = Cmax in Sprague-Dawley rat at 10 mg/kg, iv by LC-MS/MS analysis; assay type: ADME, organism-based; set-up: dose 10 mg/kg, route intravenous; details: in vivo
Cytochrome P450 3A4 [19] = target: T2, Cytochrome P450 3A4 (Homo sapiens, UniProt P08684); test: Inhibition of CYP3A4 (unknown origin) using midazolam as substrate; assay type: ADME
in vitro [20] = details: human, HOS cells
Description: Therapeutic index, ratio of CC50 for human HOS cells to IC50 for CCR5-dependent HIV1 SF162 infected in human HOS cells

[21] = Cytotoxicity against human TZM-bl cells after 48 hrs by MTT assay; assay type: cell-based
Cytochrome P450 3A4 [22] = target: T2, Cytochrome P450 3A4; test: Inhibition of CYP3A4 (unknown origin) using testosterone as substrate; assay type: ADME
[23] = system: Human immunodeficiency virus 1; test: microbe, parasite or virus in culture; details: Human immunodeficiency virus 1, SF162, TZM-bl, 48 h
Description: Antiviral activity against CCR5-dependent HIV1 SF162 infected in human TZM-bl cells assessed as reduction in virus infection measured after 48 hrs post infection by luciferase reporter gene assay

in vitro [24] = details: human, TZM-bl cells
Description: Therapeutic index, ratio of CC50 for human TZM-bl cells to EC50 for CCR5-dependent HIV1 SF162 infected in human TZM-bl cells

[25] = target: Voltage-gated inwardly rectifying potassium channel KCNH2 (Homo sapiens, UniProt Q12809); test: Inhibition of human ERG expressed in CHO cells at holding potential of -80 mV after 60 secs by patch clamp assay; assay type: cell-based
in vitro [26] = details: human, HOS cells; remark: listed apart in the source
Description: Therapeutic index, ratio of CC50 for human HOS cells to IC50 for CCR5-dependent HIV1 Ba-L infected in human HOS cells

Cytochrome P450 2D6 = Cytochrome P450 2D6 (Homo sapiens, UniProt P10635); test: Inhibition of CYP2D6 (unknown origin); assay type: ADME
[27] = Half life in Sprague-Dawley rat at 10 mg/kg, iv by LC-MS/MS analysis; assay type: ADME, organism-based; details: in vivo
[28] = system: Human immunodeficiency virus 1; test: microbe, parasite or virus in culture; details: Human immunodeficiency virus 1, KM018, PBMC, 168 h
Description: Antiviral activity against CCR5-dependent HIV1 KM018 infected in human PBMC assessed as reduction in virus infection measured after 7 days by luciferase reporter gene assay

[29] = target: C-C chemokine receptor type 5 (Homo sapiens, UniProt P51681); test: Antagonist activity at CCR5 (unknown origin) expressed in HEK293 cells co-expressing Galpha16 assessed as inhibition of RANTES-induced calcium flux preincubated for 10 mins followed by RANTES addition by fluo-4AM-based fluorescence assay; assay type: functional, cell-based
[30] = system: Human immunodeficiency virus 1; test: microbe, parasite or virus in culture; details: Human immunodeficiency virus 1, SF162, HOS, 120 h
Description: Antiviral activity against CCR5-dependent HIV1 SF162 infected in human HOS cells assessed as reduction in virus infection measured after 5 days by luciferase reporter gene assay

[31] = system: Human immunodeficiency virus 1; test: microbe, parasite or virus in culture; details: Human immunodeficiency virus 1, Ba-L, HOS, 120 h
Description: Antiviral activity against CCR5-dependent HIV1 Ba-L infected in human HOS cells assessed as reduction in virus infection measured after 5 days by luciferase reporter gene assay

Rattus norvegicus = test: Toxicity in rat assessed as mortality at 2000 mg/kg, po administered as single dose and measured during 14 days observation period; assay type: organism-based; details: in vivo, 336 h
[32] = Tmax in dog at 15 mg/kg, po by LC-MS/MS analysis; assay type: ADME, organism-based, Canis lupus familiaris; details: in vivo
[33] = Clearance in dog at 3 mg/kg, iv by LC-MS/MS analysis; assay type: ADME, organism-based, Canis lupus familiaris; details: in vivo
Hepatocyte [34] = test: Metabolic stability in dog hepatocytes assessed as compound remaining by UPLC/Q-TOF mass spectrometric analysis; assay type: ADME, cell-based, Canis lupus familiaris
[35] = AUC (0 to infinity) in dog at 15 mg/kg, po by LC-MS/MS analysis; assay type: ADME, organism-based, Canis lupus familiaris; set-up: dose 15 mg/kg, time infinity, route oral; details: in vivo
Hepatocyte [36] = test: Metabolic stability in monkey hepatocytes assessed as compound remaining by UPLC/Q-TOF mass spectrometric analysis; assay type: ADME, cell-based, Macaca mulatta; details: rhesus monkey
[37] = Half life in dog at 15 mg/kg, po by LC-MS/MS analysis; assay type: ADME, organism-based, Canis lupus familiaris; details: in vivo
Canis familiaris = test: Toxicity in po dosed dog assessed as drug tolerability administered as single dose; assay type: organism-based, Canis lupus familiaris; details: in vivo
Hepatocyte [38] = test: Metabolic stability in human hepatocytes assessed as compound remaining by UPLC/Q-TOF mass spectrometric analysis; assay type: ADME, cell-based
[39] = Cmax in dog at 15 mg/kg, po by LC-MS/MS analysis; assay type: ADME, organism-based, Canis lupus familiaris; set-up: dose 15 mg/kg, route oral; details: in vivo
[40] = Oral bioavailability in dog at 15 mg/kg by LC-MS/MS analysis; assay type: ADME, organism-based, Canis lupus familiaris; details: in vivo
[41] = AUC (0 to infinity) in dog at 3 mg/kg, iv by LC-MS/MS analysis; assay type: ADME, organism-based, Canis lupus familiaris; set-up: dose 3 mg/kg, route intravenous, time infinity; details: in vivo
[42] = Half life in dog at 3 mg/kg, iv by LC-MS/MS analysis; assay type: ADME, organism-based, Canis lupus familiaris; details: in vivo
[43] = MRT in dog at 15 mg/kg, po by LC-MS/MS analysis; assay type: ADME, organism-based, Canis lupus familiaris; details: in vivo
[44] = MRT in dog at 3 mg/kg, iv by LC-MS/MS analysis; assay type: ADME, organism-based, Canis lupus familiaris; details: in vivo
Hepatocyte [45] = test: Metabolic stability in rat hepatocytes assessed as compound remaining by UPLC/Q-TOF mass spectrometric analysis; assay type: ADME, cell-based

T2 sequence (P08684 whole entry): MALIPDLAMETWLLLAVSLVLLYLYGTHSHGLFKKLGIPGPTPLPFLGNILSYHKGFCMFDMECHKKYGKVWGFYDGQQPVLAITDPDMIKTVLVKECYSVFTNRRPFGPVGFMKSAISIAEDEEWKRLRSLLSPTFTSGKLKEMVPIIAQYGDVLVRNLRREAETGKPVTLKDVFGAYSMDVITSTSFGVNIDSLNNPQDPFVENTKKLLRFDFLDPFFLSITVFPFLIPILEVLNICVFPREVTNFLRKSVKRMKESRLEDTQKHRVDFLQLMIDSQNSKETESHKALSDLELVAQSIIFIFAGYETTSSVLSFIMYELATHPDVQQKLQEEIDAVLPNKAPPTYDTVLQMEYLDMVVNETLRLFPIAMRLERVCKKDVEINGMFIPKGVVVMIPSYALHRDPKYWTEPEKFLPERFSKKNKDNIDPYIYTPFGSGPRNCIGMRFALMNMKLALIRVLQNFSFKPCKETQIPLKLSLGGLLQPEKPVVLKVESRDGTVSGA
Chain of C-C chemokine receptor type 5 (P51681 whole entry): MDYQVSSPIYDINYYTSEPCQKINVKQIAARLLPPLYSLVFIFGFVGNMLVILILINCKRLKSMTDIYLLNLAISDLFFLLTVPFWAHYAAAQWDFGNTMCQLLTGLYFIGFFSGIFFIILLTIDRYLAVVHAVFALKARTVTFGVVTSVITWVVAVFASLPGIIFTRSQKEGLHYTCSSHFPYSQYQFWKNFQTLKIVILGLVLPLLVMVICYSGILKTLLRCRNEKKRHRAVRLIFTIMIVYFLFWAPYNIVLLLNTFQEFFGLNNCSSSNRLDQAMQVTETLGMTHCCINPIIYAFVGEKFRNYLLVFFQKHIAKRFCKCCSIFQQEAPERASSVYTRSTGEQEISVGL
Chain of Cytochrome P450 2C9 (P11712 whole entry): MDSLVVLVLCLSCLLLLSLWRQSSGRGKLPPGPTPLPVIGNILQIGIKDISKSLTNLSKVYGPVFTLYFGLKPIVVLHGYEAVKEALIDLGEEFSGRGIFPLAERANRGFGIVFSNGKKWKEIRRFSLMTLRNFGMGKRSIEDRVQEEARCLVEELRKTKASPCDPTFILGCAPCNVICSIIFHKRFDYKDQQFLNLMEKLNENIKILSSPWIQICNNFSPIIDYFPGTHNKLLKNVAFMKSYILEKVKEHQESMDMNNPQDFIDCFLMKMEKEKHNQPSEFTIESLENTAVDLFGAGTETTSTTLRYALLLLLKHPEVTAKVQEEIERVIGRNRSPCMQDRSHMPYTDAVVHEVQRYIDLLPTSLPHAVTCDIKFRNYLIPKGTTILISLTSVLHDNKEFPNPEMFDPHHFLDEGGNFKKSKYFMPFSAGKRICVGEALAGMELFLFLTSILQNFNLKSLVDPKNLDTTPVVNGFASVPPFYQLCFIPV
Chain of Voltage-gated inwardly rectifying potassium channel KCNH2 (Q12809 whole entry): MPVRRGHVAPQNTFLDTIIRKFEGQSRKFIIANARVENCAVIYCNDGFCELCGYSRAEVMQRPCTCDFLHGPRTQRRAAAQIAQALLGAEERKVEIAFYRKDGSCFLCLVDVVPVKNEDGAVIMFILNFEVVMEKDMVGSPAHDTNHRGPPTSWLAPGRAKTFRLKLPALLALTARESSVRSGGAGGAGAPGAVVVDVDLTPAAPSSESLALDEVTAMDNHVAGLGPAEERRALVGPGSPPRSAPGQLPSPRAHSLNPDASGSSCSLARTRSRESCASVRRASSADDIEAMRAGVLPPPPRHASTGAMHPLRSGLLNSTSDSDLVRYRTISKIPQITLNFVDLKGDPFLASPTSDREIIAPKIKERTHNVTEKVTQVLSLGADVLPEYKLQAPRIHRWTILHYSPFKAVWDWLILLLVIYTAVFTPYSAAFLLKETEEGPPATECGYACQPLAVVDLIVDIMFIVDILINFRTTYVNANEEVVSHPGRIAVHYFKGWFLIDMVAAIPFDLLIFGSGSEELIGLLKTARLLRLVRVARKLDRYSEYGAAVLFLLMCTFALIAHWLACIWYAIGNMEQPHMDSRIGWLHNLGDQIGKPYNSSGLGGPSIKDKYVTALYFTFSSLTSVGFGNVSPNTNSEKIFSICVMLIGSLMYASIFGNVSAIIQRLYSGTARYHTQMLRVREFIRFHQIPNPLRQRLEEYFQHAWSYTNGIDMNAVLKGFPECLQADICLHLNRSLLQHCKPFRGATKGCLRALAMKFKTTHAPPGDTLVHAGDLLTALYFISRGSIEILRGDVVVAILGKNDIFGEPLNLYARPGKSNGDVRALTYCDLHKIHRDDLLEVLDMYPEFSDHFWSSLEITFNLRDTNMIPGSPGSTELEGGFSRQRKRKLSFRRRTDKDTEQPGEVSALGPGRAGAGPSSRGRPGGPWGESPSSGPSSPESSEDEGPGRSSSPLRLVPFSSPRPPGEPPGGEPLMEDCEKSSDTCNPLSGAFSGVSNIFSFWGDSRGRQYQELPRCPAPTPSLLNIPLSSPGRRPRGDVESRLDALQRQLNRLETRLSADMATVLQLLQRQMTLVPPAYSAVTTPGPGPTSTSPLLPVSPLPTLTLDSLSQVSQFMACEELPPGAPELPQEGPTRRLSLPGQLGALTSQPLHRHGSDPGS
Chain of Cytochrome P450 2C19 (P33261 whole entry): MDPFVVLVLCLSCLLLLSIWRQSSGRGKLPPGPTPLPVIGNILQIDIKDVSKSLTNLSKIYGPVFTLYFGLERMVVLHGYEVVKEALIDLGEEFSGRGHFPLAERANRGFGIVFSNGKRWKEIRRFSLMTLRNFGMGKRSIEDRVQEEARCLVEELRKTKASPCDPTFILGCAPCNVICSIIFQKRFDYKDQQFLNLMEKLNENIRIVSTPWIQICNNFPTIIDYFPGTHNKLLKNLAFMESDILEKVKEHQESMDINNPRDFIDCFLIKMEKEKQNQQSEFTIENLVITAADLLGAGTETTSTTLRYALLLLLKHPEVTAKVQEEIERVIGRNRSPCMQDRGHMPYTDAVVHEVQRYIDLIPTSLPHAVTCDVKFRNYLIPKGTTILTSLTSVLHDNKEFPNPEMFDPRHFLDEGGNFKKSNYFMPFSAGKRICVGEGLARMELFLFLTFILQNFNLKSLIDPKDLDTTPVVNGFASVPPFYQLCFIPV
Chain of Cytochrome P450 2D6 (P10635 whole entry): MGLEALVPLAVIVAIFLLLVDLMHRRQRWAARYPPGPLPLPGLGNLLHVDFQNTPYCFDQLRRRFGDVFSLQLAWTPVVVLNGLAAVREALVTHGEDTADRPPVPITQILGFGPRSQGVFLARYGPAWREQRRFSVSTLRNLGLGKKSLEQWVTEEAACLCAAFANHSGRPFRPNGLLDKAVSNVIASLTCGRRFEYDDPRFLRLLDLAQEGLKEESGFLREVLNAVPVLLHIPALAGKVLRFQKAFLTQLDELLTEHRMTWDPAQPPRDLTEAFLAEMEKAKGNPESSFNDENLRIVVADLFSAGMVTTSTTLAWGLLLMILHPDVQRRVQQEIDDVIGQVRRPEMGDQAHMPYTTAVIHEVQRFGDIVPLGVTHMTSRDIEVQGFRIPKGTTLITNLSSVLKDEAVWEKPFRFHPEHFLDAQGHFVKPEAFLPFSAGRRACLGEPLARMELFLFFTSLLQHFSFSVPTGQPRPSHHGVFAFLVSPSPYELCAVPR

In the case of `Cc1nnc(C(C)C)n1[C@@H]1C[C@H]2CC[C@@H](C1)N2CC[C@H](NC(=O)C1CCCCC1)c1cccs1`, the Tmax [1] is reported as 0.25 h, the selectivity ratio (in vitro [2]) is reported as 509 and the Tmax [3] is reported as 0.25 h. The MRT [4] was 0.8 h, the selectivity ratio (in vitro [5]) was 44000 and the clearance [6] was 32.7 mL/min/kg. It also gave an AUC(0-inf) [7] of 1510 ng·h/mL, an IC50 (Cytochrome P450 2C19) of over 25000 nM and a selectivity ratio (in vitro [8]) of 575. The selectivity ratio (in vitro [9]) was 529, the IC50 [10] was 524 nM and the AUC(0-inf) [11] was 5110 ng·h/mL. The IC50 [12] was 8.2 nM, the bioavailability [13] was 14.8% and the half-life [14] was 1.16 h. It also gave an IC50 (Cytochrome P450 1A2) of over 25000 nM, an MRT [15] of 2.1 h and a Cmax [16] of 631 ng/mL. The IC50 [17] was 464 nM, the IC50 (Cytochrome P450 2C9) was over 25000 nM and the Cmax [18] was 4320 ng/mL. The IC50 (Cytochrome P450 3A4 [19]) was 12300 nM, the selectivity ratio (in vitro [20]) was 7800 and the CC50 at 48 h [21] was over 200000 nM. The IC50 (Cytochrome P450 3A4 [22]) was 21700 nM, the IC50 [23] was 11.1 nM and the selectivity ratio (in vitro [24]) was over 18000. It also gave an IC50 [25] of 2060 nM, a selectivity ratio (in vitro [26]) of 27000 and an IC50 (Cytochrome P450 2D6) of 15100 nM. The half-life [27] was 0.31 h, the IC50 [28] was 504 nM and the IC50 [29] was 2.3 nM. For the same compound, the IC50 [30] was 43.7 nM and the IC50 [31] was 12.5 nM.
In the case of `Cc1nnc(C(C)C)n1[C@@H]1C[C@H]2CC[C@@H](C1)N2CC[C@H](NC(=O)C1CCC(F)(F)CC1)c1ccsc1`, the Tmax [1] is reported as 2 h, the selectivity ratio (in vitro [2]) is reported as 160000 and the Tmax [3] is reported as 0.25 h. For the same compound, the MRT [4] was 0.8 h, the Activity (Rattus norvegicus) was “Non-Toxic” and the Tmax [32] was 0.8 h. For the same compound, the selectivity ratio (in vitro [5]) was 260000, the clearance [6] was 16.7 mL/min/kg and the AUC(0-inf) [7] was 1260 ng·h/mL. The clearance [33] was 5 mL/min/kg, the Stability (Hepatocyte [34]) was over 97% and the IC50 (Cytochrome P450 2C19) was over 25000 nM. For the same compound, the selectivity ratio (in vitro [8]) was 220000, the AUC(0-inf) [35] was 5520 ng·h/mL and the selectivity ratio (in vitro [9]) was 290000. For the same compound, the IC50 [10] was 4.3 nM, the AUC(0-inf) [11] was 4160 ng·h/mL and the IC50 [12] was 2.8 nM. It also gave a bioavailability [13] of 14.5%, a half-life [14] of 1.6 h and an IC50 (Cytochrome P450 1A2) of over 25000 nM. For the same compound, the Stability (Hepatocyte [36]) was over 98%, the MRT [15] was 2.6 h and the Cmax [16] was 306 ng/mL. For the same compound, the IC50 [17] was 3 nM, the IC50 (Cytochrome P450 2C9) was over 25000 nM and the Cmax [18] was 3780 ng/mL. For the same compound, the IC50 (Cytochrome P450 3A4 [19]) was over 25000 nM, the half-life [37] was 3.9 h and the Activity (Canis familiaris) was “Non-Toxic”. It also gave a selectivity ratio (in vitro [20]) of 69000, a CC50 at 48 h [21] of over 200000 nM and an IC50 (Cytochrome P450 3A4 [22]) of over 25000 nM. The IC50 [23] was 1.5 nM, the Stability (Hepatocyte [38]) was over 99% and the Cmax [39] was 4610 ng/mL. It also gave a bioavailability [40] of 10%, a selectivity ratio (in vitro [24]) of over 130000 and an IC50 [25] of over 40000 nM. It also gave a selectivity ratio (in vitro [26]) of 280000, an AUC(0-inf) [41] of 10900 ng·h/mL and a half-life [42] of 1.7 h. It also gave an IC50 (Cytochrome P450 2D6) of over 25000 nM, a half-life [27] of 1.02 h and an IC50 [28] of 2.3 nM. It also gave an IC50 [29] of 3 nM, an MRT [43] of 2.1 h and an IC50 [30] of 4.9 nM. It also gave an IC50 [31] of 1.2 nM, an MRT [44] of 1.6 h and a Stability (Hepatocyte [45]) of over 97%.
